Consider nine compounds from patent US12486259B2, “FXR agonist having pyrazine structure, and preparation method and use” (JIANGSU TASLY DIYI PHARMACEUTICAL CO., LTD., priority 2020, dated 2025).

Series [1] addresses T1, GST-labeled recombinant human FXR protein (Homo sapiens, UniProt Q96RI1).
T1 construct: purchased Invitroren (so in the source)
T1 sequence (Q96RI1 262-486 limits assumed): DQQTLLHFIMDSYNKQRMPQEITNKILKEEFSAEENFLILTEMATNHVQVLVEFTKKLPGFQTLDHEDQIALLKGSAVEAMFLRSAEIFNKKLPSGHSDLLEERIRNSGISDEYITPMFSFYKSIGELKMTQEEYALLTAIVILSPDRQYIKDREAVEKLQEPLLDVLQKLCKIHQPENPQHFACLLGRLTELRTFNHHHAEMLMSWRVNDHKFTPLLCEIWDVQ
T1 sequence (Q15788 676-700 partner limits assumed): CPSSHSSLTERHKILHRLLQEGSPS
The experiment in a line: Agonistic activity on FXR receptor (GST-FXR / SRC-1 bead assay, protein level). In kind it is biochemical. As to conditions: for EC50: 0.4 nM FXR, 30 nM SRC-1, protein level; for FXR agonistic activity at protein level (in words): judgement on Table 1 results. On the procedure:
Experimental procedures: FXR (GST-labeled recombinant human FXR protein, manufacturer: Invitroren, Item number: PV4835) and SRC-1 (steroid receptor co-activator-1) are thawed on ice. Three solutions of ABC are prepared by a buffer solution, solution A, 0.4 n M FXR and 30 nM SRC-1; solution B, 10 ug/ml Acceptor Beads; solution C, 10 ug/ml Donor Beads. Solution A is added to the plate at 15 uL per well. It is incubated at room temperature for 1 hour. Solution B is added to the plate at 7.5 uL per well. It is incubated at room temperature for 1 hour. Solution C is added to the plate at 7.5 uL per well. It is incubated at room temperature for 1 hour. It is read from the microplate reader Envision. The data are curve fitted by using Prism 5.0 to calculate the EC50.

The next series in a line: in vitro. Conditions: human; for Papp A→B: Caco-2, Papp A-B; for recovery: Caco-2, Recovery rate A-B. On the procedure:
The bi-directional transport of target compounds from apical side (AP) to basolateral side (BL) and from BL side to AP side is studied by using human colon adenocarcinoma cell line Caco-2 monolayer model. The transport parameters, apparent permeability coefficient (Papp) and efflux ratio are calculated by quantitative analysis with high performance liquid chromatography (HPLC).

Series [2] has as its system C57/BL6 mice fed MCD diet. The experiment in a line: Pharmacodynamic test in methionine-choline deficient diet (MCD) model of non-alcoholic fatty liver disease. In kind it is in vivo. As to conditions: MCD mice, obeticholic acid 40 mpk. On the procedure: Animal strain: C57/BL6, Animal Grade: SPF Grade, Gender: male, Animal Age: 8 weeks old, Animals Received Date: 2018 Sep. 28, Animal Source: Shanghai Lingchang Biotechnology Co. Ltd., Animal Certificate No: SCXK (Shanghai)2013-0018 2013001836799, Mouse feeding Environment: temperature 20-26° C., humidity 40-70%, 12 hour day and night cycle.
5% Solutol HS15/Normal saline: after Solutol HS15 (polyethylene glycol 15 hydroxystearate solubilizer) is dissolved in a water bath at 37° C., 5 ml of it is dissolved in 100 ml of normal saline, thoroughly stirred for later use.
Obeticholic acid/5% Solutol HS15/Normal saline: 0.15 ml Solutol HS15 is added to accurately weighed 12 mg obeticholic acid to fully dissolve it, and 2.85 ml normal saline is added, vigorously mixed and dissolved by the ultrasound. • TM-01 Group/5% Solutol HS15/Normal saline: 2.5 ml of 6 mg/ml TM-01 suspension is taken, 2.5 ml of 5% Solutol HS15/normal saline is added, and the mixture is mixed well. • TM-02 Group/5% Solutol HS15/Normal saline: 2.5 ml of 6 mg/ml TM-02 suspension is taken, 2.5 ml of 5% Solutol HS15/normal saline is added, and the mixture is mixed well. • TM-06 Group/5% Solutol HS15/Normal saline: 2.5 ml of 6 mg/ml TM-06 suspension is taken, 2.5 ml of 5% Solutol HS15/Normal saline is added, and the mixture is mixed well. • TM-09 Group/5% Solutol HS15/Normal saline: 2.5 ml of 6 mg/ml TM-09 suspension is taken, 2.5 ml of 5% Solutol HS15/Normal saline is added, and the mixture is mixed well.
Menstruum and test compounds are administered by gavage at a dose volume of 10 ml/kg;
After reaching the animal house, 70 8-week-old C57/BL6 mice are fed adaptively and randomly divided into 7 groups according to body weight after the average body weight reaches 23 g. They are given the model feed. The first group receives the control diet MCS and the remaining groups receive the MCD diet, while each group of mice receives compound treatment as follows: • Group 1. Control Group: MCS, menstruum, administered once daily by gavage; • Group 2. Model Group: MCD, menstruum, administered once daily by gavage; • Group 3. Obeticholic acid group: MCD, 40 mpk obeticholic acid, administered once daily by gavage; • Group 4. TM-01 Group: MCD, 30 mpk TM-01, administered once daily by gavage; • Group 5. TM-02 Group: MCD, 30 mpk TM-02, administered once daily by gavage; • Group 6. TM-06 Group: MCD, 30 mpk TM-06, administered once daily by gavage; • Group 7. TM-09 Group: MCD, 30 mpk TM-09, administered once daily by gavage; 2.4 Experimental Methods
Body weight and food intake are measured weekly during the experiment. Twenty-one days after administration, tail tips are bled with microcapillaries for AST, ALT measurements. Twenty-eight days after administration, mice are terminated, hearts are bled, and liver tissues are collected and weighed. One portion is snap frozen with liquid nitrogen for subsequent analysis and the other portion are fixed for pathological analysis.
Mouse blood is centrifuged at 5000 rpm for 10 minutes and supernatants are collected for determination of TG (triglycerides), TC (total cholesterol), HDL (high density lipoprotein), LDL (low density lipoprotein), AST (aspartate aminotransferase) and ALT (alanine aminotransferase).
AST and ALT after administration for three and four weeks are determined according to the instructions of kit. The blood lipid index 4 weeks after administration is sent to Adicon Medical Laboratory Co. Ltd. for detection.
The livers are removed from −80° C., homogenized in PBS (phosphate buffered saline), extracted with chloroform methanol organic phase, and subjected to TC and TG assays using the kit, normalized for protein content.
Four weeks after administration, the mice are anesthetized. The heart is bled, the liver is isolated and weighed. The right lobe is snapfrozen with liquid nitrogen and stored at −80° C. for liver lipid analysis. The left lobe is isolated and fixed in 10% formalin for subsequent HE and Sirius Red staining. […]

The mark [3] stands for this setting: blood, 3 weeks, TM 30 mpk, gavage.
Setting [4] is: blood, 4 weeks, TM 30 mpk, gavage.
Setting [5] is: blood, after 4 weeks, TM 30 mpk.
Where [6] appears, read: liver, after 4 weeks, TM 30 mpk.

As usually defined, the EC50 is the concentration that produces a half-maximal response. `O=C(O)c1cccc(N2CC(O)(c3ccc(OCc4c(-c5c(Cl)cccc5Cl)noc4C4CC4)cc3Cl)C2)c1` [Compound M2, reference compound]: in series [1], the EC50 came to 1.8 µM and the “FXR agonistic activity at protein level (in words)” value (shortened to “FXR agonistic activity”) is “less active than the compounds of the present invention”.
The term Papp A→B denotes how fast a substance crosses the layer from the apical side. Lower therefore signals poor permeation. Turning to `COCCc1ccc(OCC(O)CNC(C)C)cc1` (centres unmarked) [Metoprolol, reference compound], the Papp A→B was 18.1 ×10⁻⁶ cm/s in “in vitro”, 18.1 ×10⁻⁶ cm/s in the series “in vitro” (Average), 19.5 ×10⁻⁶ cm/s in “in vitro” (Sample-01) and 16.8 ×10⁻⁶ cm/s in the series “in vitro” (Sample-02). Further, the recovery in the series “in vitro” (Average) came to 93.8%; in the series “in vitro” (Sample-01) it was 93.2%; in the series “in vitro” (Sample-02), 94.3%.
On to `CC(C)(C)NCC(O)COc1cccc2c1CC(O)C(O)C2` (centres unmarked) [Nadolol, reference compound], for which the Papp A→B in the series “in vitro” worked out at 0.07 ×10⁻⁶ cm/s; in the series “in vitro” (Average), 0.07 ×10⁻⁶ cm/s; in the series “in vitro” (Sample-01), 0.07 ×10⁻⁶ cm/s; in “in vitro” (Sample-02), 0.06 ×10⁻⁶ cm/s. The recovery in “in vitro” (Average) is 89.8%; in “in vitro” (Sample-01), 91.5%; in the series “in vitro” (Sample-02) it was 88%.
On to `OC1(c2cnc(OCc3c(-c4c(Cl)cccc4Cl)noc3C3CC3)cn2)CC(c2cccc(Br)c2)C1` (centres unmarked) [TM-03, 3-(3-bromophenyl)-1-(5-((5-cyclopropyl-3-(2,6-dichlorophenyl)isoxazol-4-yl)methoxy)pyrazine-2-yl) cyclobutanol], for which the EC50 in series [1] was 0.24 µM.
Same read-out and setting: with `CS(=O)(=O)c1cccc(C2CC(O)(c3cnc(OCc4c(-c5c(Cl)cccc5Cl)noc4C4CC4)cn3)C2)c1` (centres unmarked) [TM-04, 1-(5-((5-cyclopropyl-3-(2,6-dichlorophenyl)isoxazol-4-yl)methoxy)pyrazine-2-yl)-3-(3-(methylsulfonyl)phenyl) cyclobutanol] the figure was 1.35 µM.
Turning to `OC1(c2cnc(OCc3c(-c4c(Cl)cccc4Cl)noc3C3CC3)cn2)CC(c2cccc(Sc3ccccc3)c2)C1` (centres unmarked) [TM-05, 1-(5-((5-cyclopropyl-3-(2,6-dichlorophenyl)isoxazol-4-yl)methoxy)pyrazine-2-yl)-3-(3-(phenylthio)phenyl) cyclobutanol], in series [1], the EC50 was 5.01 µM and the “FXR agonistic activity” value is “poor activity”.
For `O=C(O)c1cccc(C2CC(O)(c3cnc(OCc4c(-c5c(Cl)cccc5Cl)noc4-c4ccccc4)cn3)C2)c1` (centres unmarked) [TM-07, 3-(3-(5-(5-phenyl-3-(2,6-dichlorophenyl)isoxazole-4-ylmethoxy)-2-pyrazine)-1-hydroxycyclobutane) benzoic acid] the same measures were 4.21 µM and “poor activity”.
On to `Cc1cc(C(=O)O)cc(C2CC(O)(c3cnc(OCc4c(-c5c(Cl)cccc5Cl)noc4-c4ccccc4)cn3)C2)c1` (centres unmarked) [TM-10, 3-(3-(5-((3-(2,6-dichlorophenyl)-5-phenylisoxazol-4-yl)methoxy)pyrazine-2-yl)-3-hydroxycyclobutyl)-5-methyl benzoic acid], for which, in series [1], the EC50 stood at 5.66 µM and the “FXR agonistic activity” value was “poor activity”.
Consider `CC[C@H]1[C@@H](O)[C@@H]2[C@H](CC[C@]3(C)[C@@H]([C@H](C)CCC(=O)O)CC[C@@H]23)[C@@]2(C)CC[C@@H](O)C[C@@H]12` [obeticholic acid, reference compound], for which the “Weight, 0 week” value in series [2] (0 week, TM compounds 30 mpk, once daily by gavage) turned out to be 23.72 ± 0.46 g. Moreover, the “Food intake, 1 week” value in series [2] (1 week, TM 30 mpk, gavage) is listed as 2.992 ± 0.396 g. Moreover, the “Weight, 1 week” value in series [2] (1 week, TM compounds 30 mpk, once daily by gavage) is 21.28 ± 0.42 g. In addition, the “Food intake, 2 weeks” value in series [2] (2 weeks, TM 30 mpk, gavage) was determined as 2.945 ± 0.315 g. Moreover, the “Weight, 2 weeks” value in series [2] (2 weeks, TM compounds 30 mpk, once daily by gavage) is 18.97 ± 0.41 g. Moreover, the “Food intake, 3 weeks” value in series [2] (3 weeks, TM 30 mpk, gavage) came to 2.092 ± 0.320 g. In addition, in series [2] (3 weeks, TM compounds 30 mpk, once daily by gavage), the “Weight, 3 weeks” value was found to be 17.60 ± 0.35 g. The “Food intake, 4 weeks” value in series [2] (4 weeks, TM 30 mpk, gavage) was determined as 2.073 ± 0.031 g. Also, the “Weight, 4 week” value in series [2] (4 weeks, TM compounds 30 mpk, once daily by gavage) was 15.72 ± 0.35 g. In addition, in series [2] (after 4 weeks, TM 30 mpk), the liver weight stood at 0.90 ± 0.03 g and the liver/body weight is 5.76 ± 0.26 %. Further, in series [2] (setting [3]), the “ALT, 3 weeks” value was determined as 323.00 ± 37.79 U/L and the “AST, 3 weeks” value worked out at 197.24 ± 21.54 U/L. In series [2] (setting [4]), the “ALT, 4 weeks” value is reported as 93.37 ± 10.36 U/L and the “AST, 4 weeks” value came to 126.59 ± 20.25 U/L. For the same compound, in series [2] (setting [5]), the “HDL (blood lipid)” value turned out to be 0.55 ± 0.01 mmol/L, the “LDL (blood lipid)” value was determined as 2.80 ± 0.03 mmol/L, the “TC (blood lipid)” value was determined as 0.86 ± 0.04 mmol/L and the “TG (blood lipid)” value worked out at 0.56 ± 0.02 mmol/L. Besides, in series [2] (liver pathology score (Table 12 criteria), 4 weeks, TM 30 mpk), the HE score stood at 2.6. The “Sirius red staining area” value in series [2] (liver, 4 weeks, TM 30 mpk) came to 0.344 ± 0.057%. Further, in series [2] (setting [6]), the liver TC was 35.7 ± 3.38 µmol/g protein and the liver TG is 298 ± 36.2 µmol/g protein.
